Data: PubChem BioAssay AID2305 (GlaxoSmithKline (GSK), 2010)

System: P. falciparum 3D7 growth, pLDH absorbance
Assay: blood-stage malaria parasite growth potency – strain 3D7, dose response (AID 2305)

Structure (SMILES): CS(=O)(=O)Nc1ccc2c(C3CCN(CC4CCN(C(=O)/C=C/c5ccc(Cl)c(Cl)c5)CC4)CC3)c[nH]c2c1
- IC50: 760 nM

Structure (SMILES): COc1cc(C=CC(=O)N2CCC(CN3CCC(c4c[nH]c5ccccc45)CC3)CC2)cc(OC)c1
- IC50: 800 nM

Structure (SMILES): CC(C)(C)c1ccc(NC(=O)N[C@@H]2CCN(c3ccnc4ccccc34)C2)cc1
- IC50: 350 nM

Structure (SMILES): O=c1cc(NCCCNCc2ccc(Cl)c(Cl)c2)[nH]c2ccc(C(F)(F)F)cc12
- IC50: 520 nM

Structure (SMILES): COc1ccc2nc(C)cc(NN=Cc3cccc(F)c3)c2c1
- IC50: 290 nM

Structure (SMILES): OC(CNCc1ccccc1OCc1ccccc1)c1cc(C(F)(F)F)cc(C(F)(F)F)c1 (configuration not stated)
- IC50: 130 nM

Structure (SMILES): CC(C)OC(=O)c1cccnc1SCC(=O)Nc1ccc(C(F)(F)F)cc1Cl
- IC50: 400 nM

Structure (SMILES): Brc1ccc(Nc2nc(NCc3ccccc3)c3ccccc3n2)cc1
- IC50: 340 nM

Structure (SMILES): Cc1ccccc1CCNC(=O)c1ccc(N2CCN(c3ccncc3)CC2)nc1
- IC50: 1390 nM

Structure (SMILES): CCN(CC)CCCN(CCCN(CC)CC)c1cc(C)nc(Nc2ccc3cc(Br)ccc3c2)n1
- IC50: 570 nM

Structure (SMILES): Cc1ccc(NC(=O)Nc2ccc(I)c(OCCN(C)C)c2)cc1Cl
- IC50: 560 nM

Structure (SMILES): Cc1[nH]c(C)c(-c2ccc(C(=O)c3ccc(Cl)cc3)cc2)c(=O)c1Cl
- IC50: 530 nM

Structure (SMILES): COc1cccc(-c2ccc3c(-c4cccc(S(C)(=O)=O)c4)cnc(N)c3c2)c1
- IC50: 870 nM

Structure (SMILES): Fc1ccccc1COc1ccc(Nc2ncnc3ccc(I)cc23)cc1Cl
- IC50: 930 nM

Structure (SMILES): S=C(NCCc1ccc(Cl)cc1)N1CCC(CN2CCC(c3c[nH]c4ccccc34)CC2)CC1
- IC50: 1000 nM

Structure (SMILES): CCCCc1ccc(C(=O)Nc2ccc3nc(N4CCN(CC)CC4)cc(C)c3c2)cc1
- IC50: 910 nM

Structure (SMILES): Cc1cc(NN=Cc2cccc(F)c2)c2cc(F)ccc2n1
- IC50: 480 nM

Structure (SMILES): Fc1ccc2nc(-c3ccc(-c4ccc(CNCc5cnn(-c6ccccc6)n5)cc4)cc3)[nH]c2c1
- IC50: 540 nM

Structure (SMILES): COc1ccc(Nc2ncc3c(-c4cccc(NC(=O)c5ccccc5)c4)c[nH]c3n2)cc1OC
- IC50: 460 nM

Structure (SMILES): NC1(C(=O)O)Cc2ccc(Cl)cc2C1 (configuration not stated)
- IC50: 730 nM

Structure (SMILES): O=C(CC1CCCC1)Nc1ccc2c(c1)CCC2
- IC50: 870 nM

Structure (SMILES): CC(C)c1ccc(CN2CCC(CNC(=O)c3cc(-c4cccc(C(F)(F)F)c4)cs3)C2)cc1 (configuration not stated)
- IC50: 910 nM

Structure (SMILES): COc1ccc(-c2cc(Nc3nc(-c4cccc(Cl)c4)nc4ccccc34)ccn2)cc1
- IC50: 730 nM

Structure (SMILES): CCCCCN1CCCC(CNS(=O)(=O)c2ccc(C(=O)Nc3ccc(C(F)(F)F)cc3)cc2)C1 (configuration not stated)
- IC50: 920 nM

Structure (SMILES): CCNc1cc(C)nc(Nc2ccc(NC(=O)C3CCCC3)cc2)n1
- IC50: 1120 nM

Structure (SMILES): CCS(=O)(=O)Nc1ccc2[nH]c(O)c(C(=Nc3ccc(CN4CCCCC4)cc3)c3ccccc3)c2c1
- IC50: 60 nM

Structure (SMILES): CN1CCN(S(=O)(=O)c2cccc(Nc3nccc(N(C)c4ccc5c(c4)nc(NC(=O)c4cccs4)n5C)n3)c2)CC1
- IC50: 750 nM

Structure (SMILES): CCCCNc1ccc(C(=O)NC2CCN(C[C@H](O)c3ccnc4ccc(OC)cc34)CC2)cc1
- IC50: 440 nM

Structure (SMILES): COc1cc(C(F)(F)F)c2cc(CNCCCNc3nc4ccccc4[nH]3)[nH]c2c1
- IC50: 310 nM

Structure (SMILES): Cc1cc2c(cc1C(F)(F)F)N(C(=O)Nc1cc(OCCN(C)C)cc(C(F)(F)F)c1)CC2
- IC50: 710 nM

Structure (SMILES): Nc1nc(N)c2c(ccc3c2ccn3Cc2ccccn2)n1
- IC50: 10 nM

Structure (SMILES): CN(c1ccccc1C(=O)Nc1cc(Cl)ccc1Oc1ccccc1)S(=O)(=O)c1ccccc1
- IC50: 740 nM

Structure (SMILES): O=C(/C=C/c1ccc([N+](=O)[O-])cc1)N1CCC(NS(=O)(=O)c2ccc(F)cc2)CC1
- IC50: 820 nM

Structure (SMILES): O=C(Nc1cc(Cl)cc(Cl)c1)c1cnn(-c2ccc(F)cc2)c1C1CCNCC1
- IC50: 850 nM

Structure (SMILES): COc1cc(NC2CCCC(NCc3cn(S(=O)(=O)c4ccccc4)c4ccccc34)C2)nc2ccccc12 (configuration not stated)
- IC50: 250 nM

Structure (SMILES): Cc1cccc2[nH]c(-c3cccc(-c4ccc(NC(=O)c5ccoc5)cc4)c3)nc12
- IC50: 700 nM

Structure (SMILES): CN1CCN(CCCN(Cc2cccc(-c3cccc(CNCCc4ccccc4)c3)c2)C(=O)Nc2ccccc2)CC1
- IC50: 580 nM

Structure (SMILES): Cc1ccc2nc(C)cc(NN=Cc3cccc(F)c3)c2c1
- IC50: 630 nM

Structure (SMILES): Cn1cncc1CCCN(Cc1ccc(-c2ccc(C(F)(F)F)cc2)cc1)C(=O)Cn1c(CCc2cccc(F)c2F)cc(=O)c2cccnc21
- IC50: 1250 nM

Structure (SMILES): Cc1cc(C)c(S(=O)(=O)N2CCCCC(c3cccc(C(F)(F)F)c3)=N2)c(C)c1
- IC50: 460 nM

Structure (SMILES): Cc1cc(Cl)ccc1N(Cc1ccccc1)c1ccnc(Cl)n1
- IC50: 860 nM

Structure (SMILES): COc1ccc2nccc([C@@H](O)CN3CCC(c4cc(-c5ccc(Cl)cc5)n[nH]4)CC3)c2n1
- IC50: 740 nM

Structure (SMILES): O=C(NCc1ccccc1)c1ncn(CCCN2CCC(N3CCCC3)CC2)c1-c1ccc(Cl)c(Cl)c1
- IC50: 1120 nM

Structure (SMILES): COc1ccccc1-c1cccc2c(NC(=O)Nc3ccc4nccc(N5CCN(C)CC5)c4c3)ccnc12
- IC50: 1000 nM

Structure (SMILES): Cc1cccc2[nH]c(-c3cccc(-c4ccc(NC(=O)C(C)CN(C)C)cc4)c3)nc12 (configuration not stated)
- IC50: 220 nM

Structure (SMILES): CCN(CC)CCN(Cc1ccc(-c2ccc(C(F)(F)F)cc2)cc1)C(=O)Cn1c(SCc2ccc(F)c(F)c2F)nc(=O)c2c1CCC2
- IC50: 1020 nM

Structure (SMILES): Cc1cccc2[nH]c(-c3ccc(-c4ccc(CN5CC(C)OC(C)C5)cc4)cc3)nc12 (configuration not stated)
- IC50: 520 nM

Structure (SMILES): COc1c(F)cc(CC(C)NCC(O)c2cccc(Cl)c2)cc1F (configuration not stated)
- IC50: 1160 nM

Structure (SMILES): NC(N)=NN=Cc1ccc2c(c1)Cc1ccccc1-2
- IC50: 590 nM

Structure (SMILES): CSC1=NC(=Nc2c(C)cccc2C)C2(CCC(C(C)(C)C)CC2)N1c1ccc(O)cc1 (configuration not stated)
- IC50: 250 nM

Structure (SMILES): O=C(O)CCc1ccc(-c2c[nH]c3ncc(-c4ccc5ncccc5c4)cc23)cc1
- IC50: 300 nM

Structure (SMILES): COc1nc(-n2ccc(=N)cc2)nc2ccccc12
- IC50: 1060 nM

Structure (SMILES): CN(C)CCc1c[nH]c2ccc(C(=O)Nc3ccc(-c4ccncc4)cc3)cc12
- IC50: 570 nM

Structure (SMILES): Cc1ccc(-n2nc(-c3ccccc3)c3cc(C(=O)NCCN)sc32)cc1
- IC50: 1370 nM

Structure (SMILES): Cc1noc(C)c1-c1cccc(CNCc2cccc(-c3cccc(-c4nc5ccccc5[nH]4)c3)c2)c1
- IC50: 380 nM

Structure (SMILES): Cc1ccccc1C1CCN(C2CCC(NC(=O)C3=Cc4ccccc4OC3)CC2)CC1 (configuration not stated)
- IC50: 930 nM

Structure (SMILES): Cc1ccccc1C1CCN(c2ccc(NC(=O)c3ccc(Cl)nc3)cc2)CC1
- IC50: 1030 nM

Structure (SMILES): Oc1ccc2ccccc2c1CNCC1CCCCC1
- IC50: 670 nM

Structure (SMILES): Oc1ccc(CCNc2nc(NCCCOc3ccccc3-c3cccc(C(F)(F)F)c3)nc(N3CCNCC3)n2)cc1
- IC50: 880 nM

Structure (SMILES): CCNc1cc(C)nc(Nc2ccc(NC(=O)c3ccc(OC)c(OC)c3)cc2)n1
- IC50: 1070 nM

Structure (SMILES): Cc1cc(C)n2nc(C(=O)Nc3cc(C(F)(F)F)ccc3N3CCOCC3)nc2n1
- IC50: 120 nM

Structure (SMILES): Cc1cccc2[nH]c(-c3ccc(-c4ccc(NC(=O)Nc5ccsc5)cc4)s3)nc12
- IC50: 110 nM

Structure (SMILES): Oc1ccc(OCc2ccccn2)cc1
- IC50: 980 nM

Structure (SMILES): Cc1nc2ccccc2c(=O)n1N=Cc1ccccc1[N+](=O)[O-]
- IC50: 220 nM

Structure (SMILES): Cc1ccc2nc(Nc3ccc(Nc4nc5ccc(C)cc5[nH]4)c(C)c3)[nH]c2c1
- IC50: 770 nM

Structure (SMILES): CC(CN(C)C)C(=O)Nc1cccc(-c2ccc(-c3nc4ccc(C(F)(F)F)cc4[nH]3)cc2)c1 (configuration not stated)
- IC50: 250 nM

Structure (SMILES): N#Cc1cccc(C(=O)Nc2cccc(-c3cccc(CN4CCNCC4)c3)c2)c1
- IC50: 950 nM

Structure (SMILES): CC(C)(C)COC(=O)c1ccc(NC(=O)N[C@@H](Cc2ccc(O)cc2)C(=O)NC2CCN(Cc3ccc(O)cc3)C2)cc1 (some centres not stated)
- IC50: 670 nM

Structure (SMILES): Nc1nc(N)c2c(ccc3c2ccn3Cc2ccc(F)cc2)n1
- IC50: 10 nM

Structure (SMILES): NCCNc1ccc([N+](=O)[O-])cc1C(=O)Nc1cccc(C(F)(F)F)c1
- IC50: 910 nM

Structure (SMILES): O=C(Nc1cccc(-c2ccc(-c3nc4ccccc4[nH]3)cc2)c1)Nc1ccc2c(c1)OCO2
- IC50: 670 nM

Structure (SMILES): COc1cc(NC(=O)CCCCCCCN2CCN(C)CC2)c2ncccc2c1
- IC50: 610 nM
